Assay results taken from PMC9596378, “Discovery and molecular basis of subtype-selective cyclophilin inhibitors” (Nature Chemical Biology, 2022).
Values joined by “and” are separate entries in the source; they are usually repeats but may differ in a detail not shown here. Equal entries are not always repeated. “Also recorded” adds a separate entry of the source.

Experiments:
HeLa cells [1] = experiment: Cellular esterase activity on ester pro-drugs; format: in vitro ADME, human; parameters: unit not given here; settings: Hela intracellular (9e); three replicate columns
Method: (§1) Cells were seeded in 96-well, clear, flat-bottom, TC-treated plates in DMEM supplemented with 10% FBS for HEK293T, HeLa, and MEFs, F-12K supplemented with 10% FBS for A549, or MEM supplemented with 10% FBS for HepG2. Cells were seeded 24 h prior at a density where wells were ~70% confluent at the time of the experiment. Medium was removed and cells were incubated with 100 µL mixture containing each Cy5-conjugated compound (6 µM) in their respective medium at 1% DMSO for 48 h (36 h for HepG2) at 37 °C at 5% CO2. Supernatant was removed, and cells were washed twice with 100 µL PBS pH 7.4 (Gibco). Cells were then lysed for 15 min with 30 µL 10 mM Tris-HCl pH 8.0 buffer containing 0.05% SDS. Lysates were diluted with 100 µL acetonitrile and filtered. Lysates were analyzed by LC–MS at Harvard’s Center for Mass Spectroscopy. Di-ester, mono-ester, and di-acid abundances were quantified by total ion count of the primary isotope, and the three compounds were summed and each one expressed as a fraction of the total sum.

HEK293T cells = experiment: Cellular esterase activity on ester pro-drugs; format: in vitro ADME, human; parameters: unit not given here; settings: HEK293T intracellular (9f); three replicate columns
Method: as §1

MEFs = experiment: Cellular esterase activity on ester pro-drugs; format: in vitro ADME, mouse; parameters: unit not given here; settings: SV40 MEF intracellular (9g); three replicate columns
Method: as §1

[2] = In vitro ester pro-drug stability, buffer only; format: in vitro ADME; settings: 8 h, 6 µM, pH 7.4
Method: (§2) In PCR tubes, ester compound (6 µM) and either buffer only, CES1 (0.25 µM), or CES2 (0.25 µM) was diluted in 100 mM Tris-HCl buffer, pH 7.4, with a final DMSO concentration of 1%. Samples were maintained on a PCR block at 37 °C for 8 h. After incubation, samples were diluted with 20 µL acetonitrile and analyzed by LC–MS at Harvard’s Center for Mass Spectroscopy. Di-ester, mono-ester, and di-acid abundances were quantified by total ion count of the primary isotope and the three compounds were summed and each one expressed as a fraction of the total sum.

CypD = CypD (Homo sapiens, UniProt P30405); experiment: Chymotrypsin coupled prolyl-isomerase assay; settings: read-out: Wild-Type Cyclophilin Prolyl Isomerase Inhibition IC50 Values, CypD; wild-type CypD
Sequence of CypD (P30405 45-207): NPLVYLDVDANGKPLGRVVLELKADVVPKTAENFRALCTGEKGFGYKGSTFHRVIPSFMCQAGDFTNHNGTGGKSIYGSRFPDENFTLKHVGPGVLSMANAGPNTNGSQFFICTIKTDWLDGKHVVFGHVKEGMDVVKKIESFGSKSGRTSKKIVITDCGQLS
Method: Five microliters of compound pre-dissolved in 5% DMSO/assay buffer was then added to appropriate wells and incubated at 2–3 °C for 5 min. Five microliters of 0.5 mM α-chymotrypsin from bovine pancreas (Type II, lyophilized powder, Millipore-Sigma) in 20% 1 mM HCl/Assay Buffer was then added to each well and incubated at 2–3 °C for 5 min. The plate was then quickly transferred to a FLIPR Tetra High-Throughput Cellular Screening System (Molecular Devices). Using the internal liquid handling system of the FLIPR, 1 µL 0.5 mM Suc-AAPF-AMC (Chymotrypsin Substrate II, Millipore-Sigma) dissolved in 0.55 M LiCl/2,2,2-trifluoroethanol was added to each well, which was then mixed for 5 s, followed by immediate fluorescence measurements every 1 s for 330 s using a 360–380 nm excitation LED module and a 400–460 nm emission filter. […] Raw fluorescence data was analyzed by non-linear regression analysis with Prism v.9 by fitting one-phase association curves to each well. […] Rate constants calculated for each well (s^−1) were then normalized to substrate only (no prolyl-isomerase) and enzyme + substrate only controls.

CES2 = target: T1, CES2 (Homo sapiens, UniProt O00748); experiment: In vitro esterase activity on ester pro-drugs; format: in vitro ADME; parameters: unit not given here; settings: CES2 (9c); three replicate columns
T1 construct: purchased R&D Systems
T1 sequence (O00748 27-559): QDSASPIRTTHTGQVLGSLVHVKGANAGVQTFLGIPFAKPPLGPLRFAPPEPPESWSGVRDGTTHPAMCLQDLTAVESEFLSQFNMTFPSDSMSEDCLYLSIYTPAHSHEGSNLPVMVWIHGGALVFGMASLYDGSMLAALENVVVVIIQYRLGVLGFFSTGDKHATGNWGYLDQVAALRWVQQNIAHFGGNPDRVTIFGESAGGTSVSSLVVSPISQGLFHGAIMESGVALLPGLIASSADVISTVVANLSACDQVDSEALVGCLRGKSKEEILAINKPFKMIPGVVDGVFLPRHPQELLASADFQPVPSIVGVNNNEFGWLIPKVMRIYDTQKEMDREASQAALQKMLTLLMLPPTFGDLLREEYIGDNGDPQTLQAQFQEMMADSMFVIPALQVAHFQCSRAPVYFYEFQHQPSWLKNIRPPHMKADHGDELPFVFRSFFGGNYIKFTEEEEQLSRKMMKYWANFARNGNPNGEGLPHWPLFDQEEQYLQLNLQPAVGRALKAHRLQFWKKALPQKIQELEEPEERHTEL
Method: as §2

CES1 = target: T2, CES1 (Homo sapiens, UniProt P23141); experiment: In vitro esterase activity on ester pro-drugs; format: in vitro ADME; parameters: unit not given here; settings: CES1 (9b); three replicate columns
T2 construct: purchased R&D Systems
T2 sequence (P23141 18-567): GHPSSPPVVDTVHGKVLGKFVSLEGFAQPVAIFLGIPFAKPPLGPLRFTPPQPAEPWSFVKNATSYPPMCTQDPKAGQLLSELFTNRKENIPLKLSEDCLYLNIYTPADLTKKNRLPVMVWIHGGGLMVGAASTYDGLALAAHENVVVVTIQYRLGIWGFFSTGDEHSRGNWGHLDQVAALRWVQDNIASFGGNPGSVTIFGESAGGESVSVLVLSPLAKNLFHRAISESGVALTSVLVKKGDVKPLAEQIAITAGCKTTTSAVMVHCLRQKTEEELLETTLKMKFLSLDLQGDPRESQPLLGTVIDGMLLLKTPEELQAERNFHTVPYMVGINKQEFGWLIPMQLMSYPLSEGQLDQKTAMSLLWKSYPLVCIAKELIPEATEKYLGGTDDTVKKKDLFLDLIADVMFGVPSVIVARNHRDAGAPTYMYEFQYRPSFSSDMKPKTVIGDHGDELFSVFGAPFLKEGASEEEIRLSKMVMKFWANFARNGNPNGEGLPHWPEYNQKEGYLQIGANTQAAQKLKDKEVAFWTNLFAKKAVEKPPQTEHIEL
Method: as §2

A549 cells = experiment: Cellular esterase activity on ester pro-drugs; format: in vitro ADME, human; parameters: Di-ester: unit not given here; settings: for intracellular conversion to di-acid (in words): A549, HeLa, HEK293T, HepG2, MEFs; for Di-ester: A549 intracellular (9d), three replicate columns
Method: as §1

HepG2 cells = experiment: Cellular esterase activity on ester pro-drugs; format: in vitro ADME, human; parameters: unit: %; settings: HepG2 intracellular (9h); three replicate columns
Method: as §1

HeLa cells [3] = experiment: Fluorescence microscopy of Cy5-conjugated compounds; format: cell-based, human
Method: Cells were seeded into 96-well, black, clear-bottom, TC-treated plates, in DMEM supplemented with 10% FBS 24 h prior at a density where wells were ~80% confluent at the time of the experiment. Medium was removed and cells were then stained with 50 µL mixture containing Cy5-labeled compound (6 µM) in Kreb’s ringer solution HEPES buffered pH 7.2 (KRB), for 1 h at 37 °C. Then, 50 µL Hoechst 33342 (8 µM) and Mitotracker Green FM (0.1 µM) in KRB was added directly to wells containing cells and incubated for 15 min at 37 °C. Medium was removed and cells were washed twice with 100 µL KRB. Cells were then kept adherent to the wells in 100 µL KRB for imaging. Fluorescence microscopy was conducted on an Opera Phenix Plus High-Content Screening System, using Alexa 488, Alexa 647, and Hoescht 33342 channels. Images were analyzed using Harmony v.4.9.

Di-ester (HeLa cells [1]) | Di-ester (HEK293T cells) | Di-ester (MEFs) | Di-acid [2] | Di-ester [2] | Mono-ester [2] | IC50 (CypD) [µM] | Di-ester (CES2) | Di-ester (CES1) | Di-ester (A549 cells) | Di-ester (HepG2 cells) | SMILES | intracellular conversion to di-acid (in words) (A549 cells) | plasma membrane permeability / mitochondrial localization (in words) (HeLa cells [3])
20 and 12 (2×) | 74 (2×) and 72 | 36 and 40 and 39 | 0 | 100 | 0 | > 2 | 21 (2×) and 11 | 12 and 10 and 13 | 18 and 14 and 21 | 67 and 68 (2×) | CCOC(=O)CC(CC(=O)OCC)c1ccc(-c2ccc(CC3NC(=O)C4(Cc5ccccc5)CCCN(C4)C(=O)C=CC(=O)NCCC(C(=O)NCCNC(=O)CCCCCN4C(=CC=CC=CC5=[N+](C)c6ccccc6C5(C)C)C(C)(C)c5ccccc54)NC(=O)Cc4ccccc4CNC3=O)cc2)cc1 (centres unmarked) [Compound B53-Et-Cy5] | readily converted to the corresponding di-acids intracellularly | good mitochondrial localization; also recorded: good plasma membrane permeability
1 | 9 and 11 and 8 | 8 and 6 and 7 | 0 | 100 | 0 | > 2 | 30 and 35 and 21 | 13 and 14 and 16 | 0 (2×) and 1 | 45 and 44 and 43 | CCOC(=O)C(Cc1ccc(-c2ccc(CC3NC(=O)C4(Cc5ccccc5)CCCN(C4)C(=O)C=CC(=O)NCCC(C(=O)NCCNC(=O)CCCCCN4C(=CC=CC=CC5=[N+](C)c6ccccc6C5(C)C)C(C)(C)c5ccccc54)NC(=O)Cc4ccccc4CNC3=O)cc2)cc1)C(=O)OCC (centres unmarked) [Compound B52-Et-Cy5] | readily converted to the corresponding di-acids intracellularly | good mitochondrial localization; also recorded: good plasma membrane permeability
